Consider 32 compounds from patent US12606541B2, “PPARg modulators and methods of use” (Eisai R&D Management Co., Ltd., priority 2020, dated 2026).

This test addresses T1, His6-TEV-PPARγ-(234-505) (Homo sapiens, UniProt P37231).
T1 construct: The His6-TEV-PPARγ-(234-505) protein for assay was expressed and purified; TEV cleavage site (N); made in house
T1 sequence (P37231 234-505): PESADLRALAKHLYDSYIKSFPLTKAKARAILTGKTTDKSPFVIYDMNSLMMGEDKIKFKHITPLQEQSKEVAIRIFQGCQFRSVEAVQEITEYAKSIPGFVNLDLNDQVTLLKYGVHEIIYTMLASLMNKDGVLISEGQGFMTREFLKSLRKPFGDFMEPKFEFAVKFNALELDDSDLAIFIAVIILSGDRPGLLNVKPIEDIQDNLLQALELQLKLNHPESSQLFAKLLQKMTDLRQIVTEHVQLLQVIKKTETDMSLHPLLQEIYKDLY
Briefly: TR-FRET Assay to Measure Co-R Peptide Recruitment to PPARγ. The format is biochemical. Conditions: Co-R peptide recruitment to PPARγ; read-out: TR-FRET AC50. Summed up:
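His-tagged PPARγ (or controls) was preincubated with compound for 20 minutes at room temperature, then 5 nM anti-His terbium antibody and 200 nM FITC-labeled SMRT-ID2 corepressor peptide (final) were added for a further hour. TR-FRET signal was normalized to percent response using 500 nM T0070907 and DMSO controls.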
As usually defined, the AC50 is the concentration giving half of the maximal activity seen. As for `CC1CCCCC1NC(=O)C1CCN(C(=O)c2cc(-c3ccncc3)[nH]n2)CC1` (centres unmarked) [N-(2-methylcyclohexyl)-1-[5-(pyridin-4-yl)-1H-pyrazole-3-carbonyl]piperidine-4-carboxamide], the half-maximal activity concentration (AC50) is over 1000 nM.
As to `CN(Cc1ccccc1)C(=O)C1CCN(C(=O)c2cc(-c3ccncc3)[nH]n2)CC1` [N-benzyl-N-methyl-1-[5-(pyridin-4-yl)-1H-pyrazole-3-carbonyl]piperidine-4-carboxamide], the concentration at half-maximal activity (AC50) was over 1000 nM.
For the compound `COc1cc(-c2cc(C(=O)N3CCC(C(=O)Nc4nc5ccccc5n4C)CC3)n[nH]2)c(Cl)cn1` [1-[5-(5-chloro-2-methoxypyridin-4-yl)-1H-pyrazole-3-carbonyl]-N-(1-methyl-1H-1,3-benzodiazol-2-yl)piperidine-4-carboxamide], the AC50 is over 1000 nM.
Turning to `Cc1ccc([C@H](C)NC(=O)C2CCN(C(=O)c3cc(-c4ccncc4)[nH]n3)CC2)cc1` [N-[(1S)-1-(4-methylphenyl)ethyl]-1-[5-(pyridin-4-yl)-1H-pyrazole-3-carbonyl]piperidine-4-carboxamide], the AC50 is over 1000 nM.
As for `COc1cc(-c2cc(C(=O)N3CC[C@H](C(=O)N[C@@H]4CN(c5ccc(C)nc5)C[C@@H]4F)CC34CC4)n[nH]2)c(F)cn1` [(7S)—N-[(3R,4S)-4-fluoro-1-(6-methylpyridin-3-yl)pyrrolidin-3-yl]-4-[5-(5-fluoro-2-methoxypyridin-4-yl)-1H-pyrazole-3-carbonyl]-4-azaspiro[2.5]octane-7-carboxamide], the figure is over 1000 nM.
For `COC1CCC(NC(=O)C2CCN(C(=O)c3cc(-c4ccncc4)[nH]n3)CC2)CC1` (centres unmarked) [N-(4-methoxycyclohexyl)-1-[5-(pyridin-4-yl)-1H-pyrazole-3-carbonyl]piperidine-4-carboxamide], the AC50 is over 1000 nM.
Turning to `COc1cc(-c2cc(C(=O)N3CC4CC3CC4C(=O)NCc3cccc(Cl)c3)n[nH]2)c(F)cn1` (centres unmarked) [N-[(3-chlorophenyl)methyl]-2-[5-(5-fluoro-2-methoxypyridin-4-yl)-1H-pyrazole-3-carbonyl]-2-azabicyclo[2.2.1]heptane-5-carboxamide], the AC50 is over 1000 nM.
`Cc1ccc(NC(=O)C2CCN(C(=O)c3cc(-c4ccncc4)[nH]n3)CC2)nn1` [N-(6-methylpyridazin-3-yl)-1-[5-(pyridin-4-yl)-1H-pyrazole-3-carbonyl]piperidine-4-carboxamide]: the AC50 is over 1000 nM.
As for `O=C(c1cc(-c2ccncc2)[nH]n1)N1CCC(C(=O)N2CCN(c3ccccc3)CC2)CC1` [1-phenyl-4-{1-[5-(pyridin-4-yl)-1H-pyrazole-3-carbonyl]piperidine-4-carbonyl}piperazine], the figure is over 1000 nM; as for `COc1cc(-c2cc(C(=O)N3CCC(C(=O)NCc4cc(Cl)ccn4)CC3)n[nH]2)c(Cl)cn1` [1-[5-(5-chloro-2-methoxypyridin-4-yl)-1H-pyrazole-3-carbonyl]-N-[(4-chloropyridin-2-yl)methyl]piperidine-4-carboxamide], over 1000 nM.
As to `COc1cc(-c2cc(C(=O)N3CCC(C(=O)NC(C)c4cnn(C)c4)CC3)n[nH]2)c(Cl)cn1` (centres unmarked), the AC50 is over 1000 nM.
In the case of `COc1cc(-c2cc(C(=O)N3CCC(C(=O)NCc4ncon4)CC3)n[nH]2)c(Cl)cn1` [1-[5-(5-chloro-2-methoxypyridin-4-yl)-1H-pyrazole-3-carbonyl]-N-[(1,2,4-oxadiazol-3-yl)methyl]piperidine-4-carboxamide], the concentration at half-maximal activity (AC50) was over 1000 nM.
Consider `CS(=O)(=O)CCN1CCN(C(=O)C2CCN(C(=O)c3cc(-c4ccncc4)[nH]n3)CC2)CC1` [1-(2-methanesulfonylethyl)-4-{1-[5-(pyridin-4-yl)-1H-pyrazole-3-carbonyl]piperidine-4-carbonyl}piperazine], for which the AC50 was over 1000 nM.
`COc1cc(-c2cc(C(=O)N3CCC(C(=O)NCc4c(C)nn(C)c4C)CC3)n[nH]2)c(Cl)cn1` [1-[5-(5-chloro-2-methoxypyridin-4-yl)-1H-pyrazole-3-carbonyl]-N-[(1,3,5-trimethyl-1H-pyrazol-4-yl)methyl]piperidine-4-carboxamide]: the AC50 was over 1000 nM.
With `COc1cc(-c2cc(C(=O)N3CCC(C#N)(C(=O)NCc4cccc(Cl)c4)CC3)n[nH]2)c(Cl)cn1` [1-[5-(5-chloro-2-methoxypyridin-4-yl)-1H-pyrazole-3-carbonyl]-N-[(3-chlorophenyl)methyl]-4-cyanopiperidine-4-carboxamide], the AC50 was over 1000 nM.
As for `O=C(NC1CCOCC1)C1CCN(C(=O)c2cc(-c3ccncc3)[nH]n2)CC1` [N-(oxan-4-yl)-1-[5-(pyridin-4-yl)-1H-pyrazole-3-carbonyl]piperidine-4-carboxamide], the figure is over 1000 nM.
As for `CC[C@H](NC(=O)C1CCN(C(=O)c2cc(-c3ccncc3)[nH]n2)CC1)c1ccccc1` [N-[(1S)-1-phenylpropyl]-1-[5-(pyridin-4-yl)-1H-pyrazole-3-carbonyl]piperidine-4-carboxamide], the half-maximal activity concentration (AC50) was over 1000 nM.
Regarding `Cc1ccc(NC(=O)C2CCN(C(=O)c3cc(-c4ccncc4)[nH]n3)CC2)cc1` [N-(4-methylphenyl)-1-[5-(pyridin-4-yl)-1H-pyrazole-3-carbonyl]piperidine-4-carboxamide], the AC50 is over 1000 nM.
As for `CNC(=O)CN1CCN(C(=O)C2CCN(C(=O)c3cc(-c4ccncc4)[nH]n3)CC2)CC1` [N-methyl-2-(4-{1-[5-(pyridin-4-yl)-1H-pyrazole-3-carbonyl]piperidine-4-carbonyl}piperazin-1-yl)acetamide], the figure is over 1000 nM; as for `O=C(NC1CCC(F)(F)CC1)C1CCN(C(=O)c2cc(-c3ccncc3)[nH]n2)CC1` [N-(4,4-difluorocyclohexyl)-1-[5-(pyridin-4-yl)-1H-pyrazole-3-carbonyl]piperidine-4-carboxamide], over 1000 nM.
For `COc1cc(-c2cc(C(=O)N3CCC(C(=O)Nc4ncc(C(C)C)s4)CC3)n[nH]2)c(Cl)cn1` [1-[5-(5-chloro-2-methoxypyridin-4-yl)-1H-pyrazole-3-carbonyl]-N-[5-(propan-2-yl)-1,3-thiazol-2-yl]piperidine-4-carboxamide], the AC50 is over 1000 nM.
Take `CC1CCCC(NC(=O)C2CCN(C(=O)c3cc(-c4ccncc4)[nH]n3)CC2)C1` (centres unmarked) [N-(3-methylcyclohexyl)-1-[5-(pyridin-4-yl)-1H-pyrazole-3-carbonyl]piperidine-4-carboxamide]: the AC50 is over 1000 nM.
As for `COc1cc(-c2cc(C(=O)N3CCC(C(=O)NC(C)C4COC4)CC3)n[nH]2)c(Cl)cn1` (centres unmarked) [1-[5-(5-chloro-2-methoxypyridin-4-yl)-1H-pyrazole-3-carbonyl]-N-[1-(oxetan-3-yl)ethyl]piperidine-4-carboxamide], the AC50 was over 1000 nM.
With `COc1cc(-c2cc(C(=O)N3CCC(C(=O)NCc4nnc5ccc(C(F)(F)F)cn45)CC3)n[nH]2)c(Cl)cn1` [1-[5-(5-chloro-2-methoxypyridin-4-yl)-1H-pyrazole-3-carbonyl]-N-{[6-(trifluoromethyl)-[1,2,4]triazolo[4,3-a]pyridin-3-yl]methyl}piperidine-4-carboxamide], the AC50 was over 1000 nM.
Then `CCNC(=O)C1CCN(C(=O)c2cc(-c3ccncc3)[nH]n2)CC1` [N-ethyl-1-[5-(pyridin-4-yl)-1H-pyrazole-3-carbonyl]piperidine-4-carboxamide], with over 1000 nM; and `O=C(NC1(c2cccc(Cl)c2)CC1)C1CCN(C(=O)c2cc(-c3ccncc3)[nH]n2)CC1` [N-[1-(3-chlorophenyl)cyclopropyl]-1-[5-(pyridin-4-yl)-1H-pyrazole-3-carbonyl]piperidine-4-carboxamide], with over 1000 nM.
`COc1cc(-c2cc(C(=O)N3CCC(C(=O)NC4CCCc5[nH]c(=O)ccc54)CC3)n[nH]2)c(Cl)cn1` (centres unmarked) [1-[5-(5-chloro-2-methoxypyridin-4-yl)-1H-pyrazole-3-carbonyl]-N-(2-oxo-1,2,5,6,7,8-hexahydroquinolin-5-yl)piperidine-4-carboxamide]: the AC50 was over 1000 nM.
On to `COc1cc(-c2cc(C(=O)N3CCC(C(=O)N[C@@H]4CCOc5c(F)ccc(F)c54)CC3)n[nH]2)c(Cl)cn1` [1-[5-(5-chloro-2-methoxypyridin-4-yl)-1H-pyrazole-3-carbonyl]-N-[(4R)-5,8-difluoro-3,4-dihydro-2H-1-benzopyran-4-yl]piperidine-4-carboxamide], for which the AC50 was over 1000 nM.
With `CC1CCN(C(=O)C2CCN(C(=O)c3cc(-c4ccncc4)[nH]n3)CC2)CC1` [4-{3-[4-(4-methylpiperidine-1-carbonyl)piperidine-1-carbonyl]-1H-pyrazol-5-yl}pyridine], the AC50 was over 1000 nM.
Consider `Cc1cc(CNC(=O)C2CCN(C(=O)c3cc(-c4ccncc4)[nH]n3)CC2)cc(C)n1` [N-[(2,6-dimethylpyridin-4-yl)methyl]-1-[5-(pyridin-4-yl)-1H-pyrazole-3-carbonyl]piperidine-4-carboxamide], for which the AC50 was over 1000 nM.
For the compound `CN(C)[C@@H]1CCN(C(=O)C2CCN(C(=O)c3cc(-c4ccncc4)[nH]n3)CC2)C1` [(3R)—N,N-dimethyl-1-{1-[5-(pyridin-4-yl)-1H-pyrazole-3-carbonyl]piperidine-4-carbonyl}pyrrolidin-3-amine], the AC50 was over 1000 nM.
For the compound `COc1cc(-c2cc(C(=O)N3CCC(C(=O)NCc4nnc5ccccn45)CC3)n[nH]2)c(Cl)cn1` [1-[5-(5-chloro-2-methoxypyridin-4-yl)-1H-pyrazole-3-carbonyl]-N-({[1,2,4]triazolo[4,3-a]pyridin-3-yl}methyl)piperidine-4-carboxamide], the AC50 was over 1000 nM.
